# Data: US12016860B2, “Combination therapies with Cbl-b inhibitor compounds” (Nurix Therapeutics, Inc., priority 2021, dated 2024)
# Assays:
# [1] = tested on: BT549 (BRCA wild type) cells; assay: Caspase 3/7 apoptosis Incucyte assay with olaparib, BT549; type: cell-based; details: 1 μM compound 23, 0.05 μM olaparib, vs 0.05% DMSO, combination also vs single agents p<0.0001
# Description: (§1) BT549 (BRCA wild type) (A) and DoTc 4510 (BRCA2 mutated) (B) cells were seeded in duplicate into tissue culture treated black-sided, clear-bottom 96-well plates at 5,000^cells/well and allowed to adhere and establish for 24 h. Cells were treated with indicated concentrations of DMSO, compound 23, or Olaparib (FIGS. 13A and 13B) either alone or in combination and were labelled with 1× Essen Bioscience IncuCyte® Caspase-3/7 Green Reagent (final concentration 5 μM). Treated plates were imaged every 2 hours for 72 hours with the IncuCyte® S3 Live-Cell Analysis System. At each timepoint, one image per well was taken in both brightfield and FITC channels on the IncuCyte® S3 Live-Cell Analysis System. Images were analyzed for number of green objects per mm^2 using the IncuCyte S3 v2017A software.
# Using a caspase 3/7 apoptosis Incucyte assay, the effect of compound 23, PARPi and the combination of compound 23, and PARPi on tumor cell apoptosis was assessed in both BRCA wild type and mutated tumor cell lines in vitro.
# [2] = tested on: DoTc 4510 (BRCA2 mutated) cells; assay: Caspase 3/7 apoptosis Incucyte assay with olaparib, DoTc 4510; type: cell-based; details: vs 0.05% DMSO, combination also vs single agents p<0.0001
# Description: as §1
# BT549 tumor cell line = assay: Caspase 3/7 apoptosis Incucyte assay with paclitaxel, BT549; type: cell-based; details: 0.1 μM compound 23, 0.002 μM paclitaxel, vs 0.05% DMSO, combination also vs single agents p<0.0001
# Description: as §1, with “BT549” for “BT549 (BRCA wild type) (A) and DoTc 4510 (BRCA2 mutated) (B)”, “5,000 ^cells/well” for “5,000^cells/well”, “with” for “with indicated concentrations of”, “Paclitaxel” for “Olaparib (FIGS. 13A and 13B)”, “48” for “72”
# Using a caspase 3/7 apoptosis Incucyte® assay, the effect of compound 23, paclitaxel and the combination of compound 23 and paclitaxel on tumor cell apoptosis was assessed in the BT549 tumor cell line (a mammary gland carcinoma) in vitro.
# Raji cells = assay: Raji human non-Hodgkin's lymphoma model in SCID mice, combination with rituximab
# Description: Female CB17 mice with severe combined immunodeficiency (SCID) were intravenously (IV) injected in the tail vein with Raji cells on Day 0 and treated from Day 5 to Day 37 by administration of either: vehicle (0.5% methylcellulose, 0.2% Polysorbate 80 in deionized water+1 eq HCl) daily, orally (PO) or compound 23 at 30 mg/kg daily, PO. Anti-CD20 antibody (rituximab) at 20 mg/kg was intraperitoneally (IP) administered on Day 5, 10, and 15, either alone or in combination with compound 23 at 30 mg/kg daily, PO.
compound,measurement,setting,value
"O=C(c1cc(Cc2n[nH]c(=O)c3ccccc23)ccc1F)N1CCN(C(=O)C2CC2)CC1 [olaparib, reference compound]",tumor cell apoptosis (caspase 3/7),[1],did not undergo a significant increase in apoptosis
same,tumor cell apoptosis (caspase 3/7),[2],did not significantly increase tumor cell apoptosis
"CC(=O)O[C@H]1C(=O)[C@@]2(C)[C@H]([C@H](OC(=O)c3ccccc3)[C@]3(O)C[C@H](OC(=O)[C@H](O)[C@@H](NC(=O)c4ccccc4)c4ccccc4)C(C)=C1C3(C)C)[C@]1(OC(C)=O)CO[C@@H]1C[C@@H]2O [paclitaxel, reference compound]",tumor cell apoptosis (caspase 3/7),BT549 tumor cell line,did not undergo a significant increase in apoptosis
rituximab [reference compound],survival compared to untreated mice,"Raji cells; compound 23 30 mg/kg daily PO, rituximab 20 mg/kg IP Day 5, 10, 15, p<0.0001",significantly higher
same,survival compared to mice treated with the combination of compound 23 and rituximab,Raji cells; p<0.0001,significantly lower
